These are literature values, as cited in patent publication US20230263874A1, “TUMOR ANTIGENS FOR LIVER CANCER IMMUNOTHERAPY” (ISTITUTO NAZIONALE TUMORI IRCCS - FONDAZIONE G. PASCALE, priority 2020, published 2023).

This data set concerns hepatocellular carcinoma. Particulars: second-line treatment, advanced liver cancer not responded to sorafenib; cited from earlier work.

Regarding `CNC(=O)c1cc(Oc2ccc(NC(=O)Nc3ccc(Cl)c(C(F)(F)F)c3)c(F)c2)ccn1` [Regorafenib], the “improvement in overall survival” value is recorded as 2.8 month and the “reduction risk of death” value was 38%.
